We go through five compounds from PMC7216235, “The Ionophoric Activity of a Pro-Apoptotic VEGF165 Fragment on HUVEC Cells” (International Journal of Molecular Sciences, 2020).

The subject of data set [1] is HUVEC cells. Put plainly: Cell viability assay (MTS). It is filed as cell-based, human. The following applies: for reduction of cell viability at the higher dose tested: time at which it starts (in words): 50 µM peptide, 24 h and 48 h. On the procedure: HUVECs were maintained in EGM®-2 BulletKit® medium. Cells were grown to 80% confluence at 37 °C in a humid atmosphere in the presence of 5% CO2. Passages 2–5 were used. Cells were starved for 12 h, using endothelial cell basal medium (EBM®-2 basal medium, 0,2% Fetal Bovine Serum) before all experiments.
The MTS assay (CellTiter 96® AQueous One Solution, Promega) was performed to compare the viability of cells treated with different concentrations of peptides (VEGF73-101, VEGF84-101 VEGFQ79G, and VEGFI83G) and CuSO4, and their complexes. We considered two different growth conditions for our treatments to be examined, to which we refer in this paper as proliferation conditions or survival conditions. Proliferation condition: Cells (3 replicates) were seeded in 96-well plates at a density of 1.5 × 10^3 cell/well, treated in EGM®-2 BulletKit®, 2% Fetal Bovine Serum (FBS) without VEGF supplementation. Survival condition: Cells (3 replicates) were seeded in 96-well plates at a density of 3 × 10^3 cell/well in an EBM®-2 basal medium of 0.2% FBS without supplements and VEGF. MTS assay was used following 24 h or 48 h of treatments according to the manufacturer’s instructions. The required copper and peptides were pre-mixed together in water in order to allow peptide/copper complexes formations before their addition to the cells. When the experiments were performed in the presence of bathocuproine disulfonic acid disodium salt (BCS), in proliferation condition, 50 µM of the copper chelator was added during the treatment for 24 h. The results were reported as the percentage of viable cells, with respect to the control set, to 100%.

The nature of data set [2]: RP-HPLC retention time on PepMap C18 column (UHPLC-ESI MS) as a measure of peptide hydrophobicity. The class given is physicochemical. The following applies: used by the paper as measure of relative hydrophobicity, amidated-acetylated peptides, PepMap C18 column 300Å (75 μm × 150 mm), linear gradient 2% to 99% B (20% water–80% acetonitrile) with 0.1% FA over 40 min, 0.3 µL/min, 40 °C. On the procedure:
Here, we tested peptide lipophilic features by high-performance liquid chromatography using a reverse phase RP18 column.
To evaluate the relative hydrophobicity of the peptides, the retention times of amidated-acetylated peptides were recorded on a PepMap C18 column 300Å (75 μm × 150 mm) using a linear gradient from 2% to 99% of B (20% water–80% acetonitrile) containing 0.1% FA over 40 min, at a flow rate of 0.3 µL/min. The injection volume was 5 μL for analysis. The Q-exactive mass spectrometer was equipped with nano electrospray ion source (Nano EASY-Spray). The thermostatted column compartment was at 40 °C. The optimized parameters of mass spectrometry were illustrated as below: spray voltage, + 3.0 kV; capillary temperature, 250 °C; full MS; resolution, 70,000; automatic gain control (AGC) target, 3.0 × 10^6; maximum injection time (IT), 200 ms; scan range, 150–2000m/z. Nitrogen was used for spray stabilization. All data collected in profile mode were acquired and processed using Thermo Xcalibur 3.0 software.

A short description of data set [3]: Model membrane permeabilization assay: release of 6-carboxyfluorescein from dye-filled LUVs. The following applies: 10 µM peptide, 200 µM LUVs 5:3:2 POPC/POPE/POPS, 10 mM phosphate buffer, 100 mM NaCl, pH 7.4, 25 °C, after 800 min, fluorescence λex 494/λem 520 nm, average of three experiments. On the procedure: Figure 2 Dye release (membrane leakage) from model membranes induced by VEGF73-101, VEGF84-101, VEGFQ79G, and VEGFI83G. Kinetics of dye release from 200 µM LUVs of 5:3:2 POPC/POPE/POPS in the presence of 10 µM of each peptide. All experiments were performed in 10 mM phosphate buffer, 100 mM NaCl, pH 7.4, at 25 °C. Results are the average of three experiments.
Figure 7 Peptide induced release of 6-carboxyfluorescein from 200 μM POPC:POPE:POPS LUVs measured in the presence of (a) 10 μM peptides/Cu and (b) 10 μM VEGF73-101 (magenta curve) and its 1:1 Cu(II) complex (black curve), 10 μM VEGFI83G (green curve) and its 1:1 Cu(II) complex (blue curve). Experiments were in triplicate at 25 °C in 10 mM phosphate buffer, 100 mM NaCl, pH 7.4.
Model membranes were prepared according to a procedure described elsewhere. To mimic the lipid composition of endothelial cell membranes, we used POPC:POPE:POPS (5:3:2 molar ratio) lipid mixture. Multilamellar vesicles (MLVs) were obtained by vortexing a chloroform lipid solution under a gentle nitrogen flow. Next, the lipid solution was dried overnight in a vacuum at room temperature in a round-bottomed flask to remove all the residual solvent. […] Pore formation in the lipid bilayer was monitored by measuring the increase in fluorescence emission intensity due to dye dilution (dequenching) in the buffer upon membrane leakage. […]

In data set [4] the test system is HUVEC cells. Put plainly: Annexin V-FITC/PI staining, flow cytometry. The class given is cell-based, human. The following applies: 72 h; for induction of apoptosis (in words): 5 µM peptide, EBM-2 0.2% FBS, PI/Annexin V, two experiments in triplicate. Here is the method: Annexin V/ PI is a commonly used approach for studying apoptotic cells. Propidium iodide (PI) is widely used in conjunction with Annexin V to determine if cells are viable, apoptotic, or necrotic through differences in plasma membrane integrity and permeability. The fluorescence of AnnexinV-FITC/PI assay was read using flow cytometry. HUVEC cells were seeded on a 12-well plate at a density of 2.5 ×10^4 and grown for 48 h before treatments. During the last 24 h cells were starved in the same EBM-2 basal medium containing 0.2% fetal bovine serum without EC (endothelial cell) supplements. Cells were then exposed to 5 µM peptide for 72 h. When required, 10 µM CuSO4 was used in combination with peptides. Five hours of incubation in the presence of 1 µM STS (staurosporine) was used as a positive control for cell death. Cells were harvested and stained with Annexin V-FITC (Fluorescein isothiocyanate) and propidium iodide using an annexin V-FITC apoptosis detection kit (Life technologies, Monza (MB), Italy), following the manufacturer’s instructions. Briefly, cells were pelleted and resuspended in 800 µL PBS buffer containing 20 µL of annexin V, 20 µL of propidium iodide, and PI (Annexin V/Dead Cell Apoptosis Kit (Invitrogen), and kept for 10 min at 25 °C in the dark. Samples were analyzed within 1 h by flow cytometry using a CyFlow® ML (Sysmex Partec Milan-Italy). The fluorescent scatter plots indicated three types of cell populations: viable (Annexin V-FITC−/PI−), dead (Annexin V-FITC + /PI+), and apoptotic (Annexin V-FITC + /PI−). Quadrant analysis (FlowMax software -Partec) was performed on the gated fluorescent scatter plot to examine the percentage of live, dead, and apoptotic cell populations. Experiments were repeated twice in triplicate.
Sample were analyzed, 2 × 10^4 cells per sample, using a CyFlow® ML flow cytometer (Partec) system equipped with three laser sources and 10 optical parameters with dedicated filter setting and a high numerical aperture microscope objective (50× NA 0.82) for the detection of different scatter and fluorescence signals. […]
(In general: In flow cytometry, cells or beads pass a laser one at a time.)

Where [5] appears, read: survival conditions (EBM2, 0.2% FBS without growth factors), MTS.

Take `O=S(=O)([O-])[O-].[Cu+2]` [Cu(II), copper sulfate, reference compound]: the “cell viability of Cu(II) alone (in words)” value in data set [1] (24 h, same concentrations as in the complexes, survival and proliferation conditions, MTS (Figure 9)) is given as “had no effects”.
As for “Ac-ESNITMQIMRIKPHQGQHIGEMSFLQHNK-NH2 [VEGF73-101]”, the “RP-HPLC retention time tR” value in data set [2] stood at 21.7 min. Besides, the “cell viability (in words)” value in data set [1] (5 µM peptide, 48 h, survival conditions (EBM2, 0.2% FBS without growth factors), MTS) is listed as “significantly decrease cell viability”. Moreover, the “reduction of cell viability at the higher dose tested: time at which it starts (in words)” value (“reduction of cell viability” below) in data set [1] (setting [5]) is recorded as “starting at 24 h”. The “effect of the copper chelator BCS on the peptide's effect on cell viability (in words)” value in data set [1] (BCS 50 µM, 24 h, proliferation conditions, no added copper, MTS (Figure S10)) is reported as “not significantly altered by BCS”. Also, the “dye release (membrane leakage)” value in data set [3] is listed as roughly 5%. In addition, in data set [4], the “induction of apoptosis (in words)” value is reported as “able to induce apoptosis”. For the same compound, the “live cells in the presence of Cu(II) (in words)” value in data set [4] (peptide 5 µM with copper(II) 10 µM, PI/Annexin V (Figure 10)) was “caused a decrease in live cells”.
As to “Ac-ESTNIMGIMRIKPHQGQHIGEMSFLQHNK-NH2 [VEGFQ79G, VEGF73-101 with point mutation in position 79 (Gln-Gly)]”, the “RP-HPLC retention time tR” value in data set [2] is given as 21.4 min. In addition, the “reduction of cell viability” value in data set [1] (setting [5]) is given as “starting at 48 h”.
Taken in the same sequence, the figures for “Ac-ESTNIMQIMRGKPHQGQHIGEMSFLQHNK-NH2 [VEGFI83G, VEGF73-101 with point mutation in position 83 (Ile-Gly)]” were 20.4 min and “starting at 24 h”.
For Ac-KPHQGQHIGEMSFLQHNK-NH2 [VEGF84-101], the “RP-HPLC retention time tR” value in data set [2] is 18.2 min. The “reduction of cell viability” value in data set [1] (setting [5]) is “all peptides (except VEGF84-101) were able to reduce cell viability”. For the same compound, the “induction of apoptosis (in words)” value in data set [4] is “Neither the shorter sequence (VEGF84-101), nor the single mutated peptides induced apoptosis”.
